Reference: ChEMBL document CHEMBL4265983, “Discovery and biological evaluation of thiobarbituric derivatives as potent p300/CBP inhibitors” (Bioorg Med Chem, 2018)
Active and inactive are the calls of the source. The calls are words filed in the database; no cut-off is given here.

Legend:
[1] = target: Histone acetyltransferase p300 (Homo sapiens, UniProt Q09472); test: Inhibition of p300 (unknown origin) using human histone as substrate measured after 60 mins in presence of [3H]-acetyl-CoA by microbeta counting method
[2] = target: T1, CREB-binding protein/Histone acetyltransferase p300 (Homo sapiens) (UniProt Q09472+Q92793); test: Inhibition of P300/CBP acetyl transferase activity in human MV4-11 cells assessed as reduction in acetylated H3K18 levels at 2.2 to 60 uM after 24 hrs in presence of SAHA by Western blot analysis; assay type: cell-based
[3] = target: T1, CREB-binding protein/Histone acetyltransferase p300 (Homo sapiens); test: Inhibition of P300/CBP acetyl transferase activity in human Kasumi-1 cells assessed as reduction in acetylated H3K18 levels at 2.2 to 60 uM after 24 hrs in presence of SAHA by Western blot analysis; assay type: cell-based
MV4-11 [4] = test: Antiproliferative activity against human MV4-11 cells after 72 hrs by CellTiter-Glo assay; details: MV4-11, 72 h
KOPN-8 = test: Antiproliferative activity against human KOPN8 cells after 72 hrs by CellTiter-Glo assay; details: KOPN-8, 72 h
[5] = target: T1, CREB-binding protein/Histone acetyltransferase p300 (Homo sapiens); test: Inhibition of P300/CBP in human MV4-11 cells assessed as downregulation of MYC RNA expression at 20 uM after 12 hrs by RT-PCR analysis; assay type: cell-based
[6] = target: T1, CREB-binding protein/Histone acetyltransferase p300 (Homo sapiens); test: Inhibition of P300/CBP in human MV4-11 cells assessed as change in UHRF1 mRNA expression at 20 uM after 12 hrs by RNA-seq analysis; assay type: cell-based
MV4-11 [7] = test: Antitumor activity against human MV4-11 cells xenografted in nude mouse assessed as reduction in tumor cell proliferation at 25 to 50 mg/kg, ip administered every 2 days for 20 days by KI-67-staining based microscopic analysis; assay type: functional, organism-based
MV4-11 [8] = test: Antitumor activity against human MV4-11 cells xenografted in ip dosed nude mouse assessed as reduction in tumor growth rate administered every 2 days for 20 days; assay type: functional, organism-based
RS4-11 = test: Antiproliferative activity against human RS4:11 cells after 72 hrs by CellTiter-Glo assay; details: RS4-11, 72 h
[9] = target: T1, CREB-binding protein/Histone acetyltransferase p300 (Homo sapiens); test: Inhibition of P300/CBP in human MV4-11 cells assessed as downregulation of MYC RNA expression at 20 uM after 12 hrs by RNA-seq analysis; assay type: cell-based
MV4-11 [10] = test: Induction of apoptosis in human MV4-11 cells up to 20 uM after 48 hrs by Annexin V-FITC/propidium iodide staining-based flow cytometric analysis; assay type: functional, cell-based
CCRF-CEM = test: Antiproliferative activity against human CEM cells after 72 hrs by CellTiter-Glo assay
MV4-11 [11] = test: Induction of apoptosis in human MV4-11 cells assessed as apoptotic cells at 6.7 uM after 48 hrs by Annexin V-FITC/propidium iodide staining-based flow cytometric analysis; assay type: functional
[12] = target: T1, CREB-binding protein/Histone acetyltransferase p300 (Homo sapiens); test: Inhibition of P300/CBP in human MV4-11 cells assessed as downregulation of RRM2B RNA expression at 20 uM after 12 hrs by RNA-seq analysis; assay type: cell-based
MV4-11 [13] = test: Induction of apoptosis in human MV4-11 cells assessed as increase in cleaved caspase3 levels after 24 hrs by Western blot analysis; assay type: functional, cell-based
[14] = target: T1, CREB-binding protein/Histone acetyltransferase p300 (Homo sapiens); test: Inhibition of P300/CBP in human MV4-11 cells assessed as upregulation of SESN2 RNA expression at 20 uM after 12 hrs by RT-PCR analysis; assay type: cell-based
MV4-11 [15] = test: Antitumor activity against human MV4-11 cells xenografted in ip dosed nude mouse assessed as increase in apoptotic cells administered every 2 days for 20 days by TUNEL assay; assay type: functional, organism-based
MV4-11 [16] = test: Induction of apoptosis in human MV4-11 cells assessed as increase in cleaved caspase9 levels after 24 hrs by Western blot analysis; assay type: functional, cell-based
[17] = target: T1, CREB-binding protein/Histone acetyltransferase p300 (Homo sapiens); test: Inhibition of P300/CBP in human MV4-11 cells assessed as downregulation of CCNB1 RNA expression at 20 uM after 12 hrs by RNA-seq analysis; assay type: cell-based
MV4-11 [18] = test: Induction of apoptosis in human MV4-11 cells assessed as increase in cleaved PARP levels after 24 hrs by Western blot analysis; assay type: functional, cell-based
[19] = target: T1, CREB-binding protein/Histone acetyltransferase p300 (Homo sapiens); test: Inhibition of P300/CBP in human MV4-11 cells assessed as downregulation of HIF1A RNA expression at 20 uM after 12 hrs by RT-PCR analysis; assay type: cell-based
[20] = target: T1, CREB-binding protein/Histone acetyltransferase p300 (Homo sapiens); test: Inhibition of P300/CBP in human MV4-11 cells assessed as downregulation of CCNA2 RNA expression at 20 uM after 12 hrs by RT-PCR analysis; assay type: cell-based
[21] = target: T1, CREB-binding protein/Histone acetyltransferase p300 (Homo sapiens); test: Inhibition of P300/CBP in human MV4-11 cells assessed as upregulation of GADD45B RNA expression at 20 uM after 12 hrs by RT-PCR analysis; assay type: cell-based
[22] = target: T1, CREB-binding protein/Histone acetyltransferase p300 (Homo sapiens); test: Inhibition of P300/CBP in human MV4-11 cells assessed as downregulation of CCNB1 RNA expression at 20 uM after 12 hrs by RT-PCR analysis; assay type: cell-based
[23] = target: T1, CREB-binding protein/Histone acetyltransferase p300 (Homo sapiens); test: Inhibition of P300/CBP acetyl transferase activity in human MV4-11 cells assessed as reduction in acetylated H3K18 levels after 24 hrs in presence of SAHA by Western blot analysis; assay type: cell-based
CREB-binding protein = CREB-binding protein (Homo sapiens, UniProt Q92793); test: Inhibition of CBP (unknown origin) in presence of [3H]-acetyl-CoA
[24] = target: T1, CREB-binding protein/Histone acetyltransferase p300 (Homo sapiens); test: Inhibition of P300/CBP in human MV4-11 cells assessed as downregulation of CCNA2 RNA expression at 20 uM after 12 hrs by RNA-seq analysis; assay type: cell-based
[25] = target: T1, CREB-binding protein/Histone acetyltransferase p300 (Homo sapiens); test: Inhibition of P300/CBP in human MV4-11 cells assessed as downregulation of RRM2B RNA expression at 20 uM after 12 hrs by RT-PCR analysis; assay type: cell-based
MOLT-4 = test: Antiproliferative activity against human MOLT4 cells after 72 hrs by CellTiter-Glo assay; details: MOLT-4, 72 h
THP-1 = test: Antiproliferative activity against human THP1 cells after 72 hrs by CellTiter-Glo assay; details: THP-1, 72 h
[26] = target: T1, CREB-binding protein/Histone acetyltransferase p300 (Homo sapiens); test: Inhibition of P300/CBP in human MV4-11 cells assessed as upregulation of SESN2 RNA expression at 20 uM after 12 hrs by RNA-seq analysis; assay type: cell-based
Jurkat = test: Antiproliferative activity against human Jurkat cells after 72 hrs by CellTiter-Glo assay
[27] = target: T1, CREB-binding protein/Histone acetyltransferase p300 (Homo sapiens); test: Inhibition of P300/CBP in human MV4-11 cells assessed as upregulation of GADD45B RNA expression at 20 uM after 12 hrs by RNA-seq analysis; assay type: cell-based
[28] = target: T1, CREB-binding protein/Histone acetyltransferase p300 (Homo sapiens); test: Inhibition of P300/CBP in human MV4-11 cells assessed as upregulation of BAX RNA expression at 20 uM after 12 hrs by RNA-seq analysis; assay type: cell-based
[29] = target: T1, CREB-binding protein/Histone acetyltransferase p300 (Homo sapiens); test: Inhibition of P300/CBP acetyl transferase activity in human Kasumi-1 cells assessed as reduction in acetylated H3K18 levels after 24 hrs in presence of SAHA by Western blot analysis; assay type: cell-based
K562 = test: Antiproliferative activity against human K562 cells after 72 hrs by CellTiter-Glo assay; details: K562, 72 h
[30] = target: T1, CREB-binding protein/Histone acetyltransferase p300 (Homo sapiens); test: Inhibition of P300/CBP in human MV4-11 cells assessed as upregulation of BAX RNA expression at 20 uM after 12 hrs by RT-PCR analysis; assay type: cell-based
Kasumi 1 = test: Antiproliferative activity against human Kasumi-1 cells after 72 hrs by CellTiter-Glo assay; details: Kasumi 1, 72 h
MOLT-3 = test: Antiproliferative activity against human MOLT3 cells after 72 hrs by CellTiter-Glo assay; details: MOLT-3, 72 h
MV4-11 [31] = test: Cell cycle arrest in human MV4-11 cells assessed as accumulation at G1 phase up to 20 uM after 24 hrs by propidium iodide/RNase staining-based flow cytometric analysis; assay type: functional
[32] = target: T1, CREB-binding protein/Histone acetyltransferase p300 (Homo sapiens); test: Inhibition of P300/CBP in human MV4-11 cells assessed as downregulation of HIF1A RNA expression at 20 uM after 12 hrs by RNA-seq analysis; assay type: cell-based
[33] = target: T1, CREB-binding protein/Histone acetyltransferase p300 (Homo sapiens); test: Inhibition of P300/CBP in human MV4-11 cells assessed as change in DEPDC1 mRNA expression at 20 uM after 12 hrs by RNA-seq analysis; assay type: cell-based
[34] = target: Histone acetyltransferase KAT5 (Homo sapiens, UniProt Q92993); test: Inhibition of Tip60 (unknown origin)

T1 sequence (Q09472 whole entry, looked up): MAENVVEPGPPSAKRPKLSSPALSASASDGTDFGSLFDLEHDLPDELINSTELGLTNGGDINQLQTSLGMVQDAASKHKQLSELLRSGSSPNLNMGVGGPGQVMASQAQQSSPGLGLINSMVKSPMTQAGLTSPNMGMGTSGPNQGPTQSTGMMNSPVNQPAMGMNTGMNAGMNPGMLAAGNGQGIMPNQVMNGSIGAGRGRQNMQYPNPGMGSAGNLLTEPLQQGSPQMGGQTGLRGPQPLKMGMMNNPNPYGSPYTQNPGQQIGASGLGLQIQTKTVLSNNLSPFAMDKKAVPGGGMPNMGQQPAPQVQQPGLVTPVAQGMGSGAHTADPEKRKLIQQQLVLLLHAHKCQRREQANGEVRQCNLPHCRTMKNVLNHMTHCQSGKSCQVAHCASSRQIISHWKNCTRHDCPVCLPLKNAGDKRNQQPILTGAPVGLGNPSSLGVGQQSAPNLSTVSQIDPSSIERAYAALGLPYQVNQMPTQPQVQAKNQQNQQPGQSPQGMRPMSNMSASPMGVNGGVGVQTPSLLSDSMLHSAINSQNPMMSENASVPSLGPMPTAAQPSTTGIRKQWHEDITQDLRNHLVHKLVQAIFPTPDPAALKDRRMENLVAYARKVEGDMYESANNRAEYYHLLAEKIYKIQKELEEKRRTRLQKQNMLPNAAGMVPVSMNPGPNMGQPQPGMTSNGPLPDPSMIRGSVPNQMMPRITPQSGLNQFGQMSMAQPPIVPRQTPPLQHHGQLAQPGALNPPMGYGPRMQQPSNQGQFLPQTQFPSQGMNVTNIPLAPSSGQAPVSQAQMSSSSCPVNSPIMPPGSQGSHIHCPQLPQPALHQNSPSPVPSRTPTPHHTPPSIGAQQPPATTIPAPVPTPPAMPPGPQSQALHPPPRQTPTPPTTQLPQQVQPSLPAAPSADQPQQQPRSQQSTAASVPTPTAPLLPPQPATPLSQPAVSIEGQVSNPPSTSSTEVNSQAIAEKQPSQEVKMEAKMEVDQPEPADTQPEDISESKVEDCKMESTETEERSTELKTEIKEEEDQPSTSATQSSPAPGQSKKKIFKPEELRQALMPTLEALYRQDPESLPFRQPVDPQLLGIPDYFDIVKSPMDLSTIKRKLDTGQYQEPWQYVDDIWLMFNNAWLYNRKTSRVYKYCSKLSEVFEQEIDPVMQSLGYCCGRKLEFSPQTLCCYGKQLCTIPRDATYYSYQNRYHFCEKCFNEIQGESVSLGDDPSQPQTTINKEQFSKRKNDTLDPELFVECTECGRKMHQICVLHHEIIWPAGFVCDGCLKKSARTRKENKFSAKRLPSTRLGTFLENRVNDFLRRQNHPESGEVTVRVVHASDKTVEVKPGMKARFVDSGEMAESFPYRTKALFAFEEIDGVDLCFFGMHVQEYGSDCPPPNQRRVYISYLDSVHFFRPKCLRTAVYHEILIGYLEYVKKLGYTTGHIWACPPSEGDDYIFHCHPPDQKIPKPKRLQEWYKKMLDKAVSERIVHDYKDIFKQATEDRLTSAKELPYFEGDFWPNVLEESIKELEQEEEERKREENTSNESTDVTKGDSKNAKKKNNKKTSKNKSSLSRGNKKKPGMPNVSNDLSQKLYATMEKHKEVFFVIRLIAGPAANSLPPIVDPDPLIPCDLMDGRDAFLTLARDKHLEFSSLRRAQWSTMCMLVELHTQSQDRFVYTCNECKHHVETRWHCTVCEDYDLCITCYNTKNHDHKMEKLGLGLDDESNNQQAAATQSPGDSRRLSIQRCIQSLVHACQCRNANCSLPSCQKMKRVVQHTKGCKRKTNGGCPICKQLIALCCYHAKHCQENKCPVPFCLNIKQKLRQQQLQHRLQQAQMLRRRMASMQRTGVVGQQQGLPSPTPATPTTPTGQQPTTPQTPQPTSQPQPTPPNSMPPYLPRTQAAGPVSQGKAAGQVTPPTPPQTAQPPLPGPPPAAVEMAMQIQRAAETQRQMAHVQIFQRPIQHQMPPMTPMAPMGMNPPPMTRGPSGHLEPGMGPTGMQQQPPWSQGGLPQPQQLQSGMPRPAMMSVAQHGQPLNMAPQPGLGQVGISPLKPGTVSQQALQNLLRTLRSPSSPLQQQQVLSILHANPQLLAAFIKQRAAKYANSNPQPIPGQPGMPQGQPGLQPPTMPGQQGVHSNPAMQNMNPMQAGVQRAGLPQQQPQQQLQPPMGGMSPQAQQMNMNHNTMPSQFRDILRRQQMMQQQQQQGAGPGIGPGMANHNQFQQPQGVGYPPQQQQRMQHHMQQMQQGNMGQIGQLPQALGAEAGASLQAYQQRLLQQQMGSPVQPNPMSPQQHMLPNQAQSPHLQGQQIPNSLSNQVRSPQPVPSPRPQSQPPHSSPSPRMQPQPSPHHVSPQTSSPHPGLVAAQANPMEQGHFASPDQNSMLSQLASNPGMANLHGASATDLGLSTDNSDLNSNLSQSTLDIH
T1 sequence (Q92793 whole entry, looked up): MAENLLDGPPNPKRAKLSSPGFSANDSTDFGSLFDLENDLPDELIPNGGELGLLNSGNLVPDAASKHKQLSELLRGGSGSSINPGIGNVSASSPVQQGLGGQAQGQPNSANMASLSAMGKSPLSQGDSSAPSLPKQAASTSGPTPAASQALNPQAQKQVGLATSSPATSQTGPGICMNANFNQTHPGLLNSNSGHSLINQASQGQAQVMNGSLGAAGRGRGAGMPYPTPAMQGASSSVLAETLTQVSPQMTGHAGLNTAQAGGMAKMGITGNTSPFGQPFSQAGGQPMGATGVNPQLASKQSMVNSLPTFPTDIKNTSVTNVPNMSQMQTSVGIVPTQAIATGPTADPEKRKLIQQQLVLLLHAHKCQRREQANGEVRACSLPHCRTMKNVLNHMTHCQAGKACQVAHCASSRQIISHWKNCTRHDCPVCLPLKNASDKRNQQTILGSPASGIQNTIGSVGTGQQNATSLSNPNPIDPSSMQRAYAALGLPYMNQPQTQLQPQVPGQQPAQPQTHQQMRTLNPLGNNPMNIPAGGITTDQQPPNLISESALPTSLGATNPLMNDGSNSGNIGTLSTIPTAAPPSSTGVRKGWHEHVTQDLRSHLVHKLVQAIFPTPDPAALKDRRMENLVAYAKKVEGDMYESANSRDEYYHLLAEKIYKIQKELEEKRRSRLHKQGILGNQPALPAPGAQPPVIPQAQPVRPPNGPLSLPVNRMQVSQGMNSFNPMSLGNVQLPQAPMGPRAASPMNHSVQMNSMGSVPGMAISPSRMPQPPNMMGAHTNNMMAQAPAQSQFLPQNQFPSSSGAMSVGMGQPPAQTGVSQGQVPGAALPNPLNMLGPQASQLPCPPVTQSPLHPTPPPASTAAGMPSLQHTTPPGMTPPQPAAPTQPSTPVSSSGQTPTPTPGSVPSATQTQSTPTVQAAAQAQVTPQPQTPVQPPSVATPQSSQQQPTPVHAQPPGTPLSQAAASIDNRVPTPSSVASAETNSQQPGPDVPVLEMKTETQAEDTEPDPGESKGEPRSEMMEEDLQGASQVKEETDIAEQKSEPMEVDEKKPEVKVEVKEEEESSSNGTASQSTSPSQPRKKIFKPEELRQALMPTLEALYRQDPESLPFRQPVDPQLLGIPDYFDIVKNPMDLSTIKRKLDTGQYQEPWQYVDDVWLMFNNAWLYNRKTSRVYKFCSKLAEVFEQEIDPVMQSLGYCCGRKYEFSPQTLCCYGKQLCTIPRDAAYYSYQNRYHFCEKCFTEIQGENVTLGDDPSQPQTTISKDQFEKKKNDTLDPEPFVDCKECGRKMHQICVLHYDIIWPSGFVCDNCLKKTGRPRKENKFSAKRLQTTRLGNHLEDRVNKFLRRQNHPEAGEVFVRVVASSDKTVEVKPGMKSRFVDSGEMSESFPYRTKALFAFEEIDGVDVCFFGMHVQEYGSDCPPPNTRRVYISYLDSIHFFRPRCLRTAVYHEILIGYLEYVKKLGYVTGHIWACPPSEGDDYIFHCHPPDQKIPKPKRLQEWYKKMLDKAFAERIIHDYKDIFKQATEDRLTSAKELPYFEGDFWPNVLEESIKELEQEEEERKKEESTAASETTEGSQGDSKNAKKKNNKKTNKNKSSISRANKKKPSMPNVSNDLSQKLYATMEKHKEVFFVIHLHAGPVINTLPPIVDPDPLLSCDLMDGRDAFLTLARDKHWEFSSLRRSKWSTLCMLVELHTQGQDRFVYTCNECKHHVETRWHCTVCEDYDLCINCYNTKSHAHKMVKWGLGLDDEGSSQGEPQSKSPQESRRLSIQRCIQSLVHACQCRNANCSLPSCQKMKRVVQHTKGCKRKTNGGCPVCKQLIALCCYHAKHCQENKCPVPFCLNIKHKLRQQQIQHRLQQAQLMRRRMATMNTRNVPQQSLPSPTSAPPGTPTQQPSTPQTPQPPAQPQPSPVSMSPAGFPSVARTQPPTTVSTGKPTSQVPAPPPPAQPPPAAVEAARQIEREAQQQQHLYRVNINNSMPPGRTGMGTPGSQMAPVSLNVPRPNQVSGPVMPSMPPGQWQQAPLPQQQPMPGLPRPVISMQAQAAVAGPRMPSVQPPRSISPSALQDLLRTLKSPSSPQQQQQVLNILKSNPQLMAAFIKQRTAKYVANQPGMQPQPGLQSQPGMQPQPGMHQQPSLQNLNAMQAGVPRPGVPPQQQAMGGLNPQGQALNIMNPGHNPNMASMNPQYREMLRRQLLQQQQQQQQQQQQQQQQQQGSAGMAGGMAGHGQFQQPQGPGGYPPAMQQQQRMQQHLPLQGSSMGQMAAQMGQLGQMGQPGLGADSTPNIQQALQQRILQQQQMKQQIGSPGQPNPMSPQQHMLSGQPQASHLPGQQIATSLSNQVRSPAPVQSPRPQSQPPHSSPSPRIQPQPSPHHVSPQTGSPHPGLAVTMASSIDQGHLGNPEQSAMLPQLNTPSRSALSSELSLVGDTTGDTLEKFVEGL
Histone acetyltransferase p300, sequence (Q09472 whole entry): as the sequence (Q09472 whole entry, looked up) above
CREB-binding protein, sequence (Q92793 whole entry): as the sequence (Q92793 whole entry, looked up) above

CN1C(=O)/C(=C/c2c[nH]c3ccccc23)C(=O)NC1=S
IC50 [1]: > 50 µM

Cc1cc(/C=C2\C(=O)NC(=S)N(C)C2=O)c(C)n1C
IC50 [1]: 14 µM

CN1C(=O)/C(=C/c2ccncc2)C(=O)NC1=S
IC50 [1]: > 50 µM

CN1C(=O)/C(=C/c2ccccc2)C(=O)NC1=S
inhibition [2]: inactive | inhibition [3]: inactive | IC50 [1]: 45 µM | IC50 (MV4-11 [4]): > 100 µM

Cc1ccc(N2C(=O)/C(=C\C=C\c3ccco3)C(=O)NC2=S)cc1Cl
IC50 (KOPN-8): 5.9 µM | inhibition [5]: Active | inhibition [6]: Active | Activity (MV4-11 [7]): Active | TGI (MV4-11 [8]): Dose-dependent effect | IC50 (RS4-11): 4.7 µM | inhibition [9]: Active | Activity (MV4-11 [10]): Dose-dependent effect | IC50 (CCRF-CEM): 3.8 µM | Activity (MV4-11 [11]): >=60% | inhibition [12]: Active | Activity (MV4-11 [13]): Dose-dependent effect | inhibition [14]: Active | Activity (MV4-11 [15]): Dose-dependent effect | Activity (MV4-11 [16]): Dose-dependent effect | inhibition [17]: Active | Activity (MV4-11 [18]): Dose-dependent effect | IC50 [1]: 0.7 µM | inhibition [19]: Active | inhibition [20]: Active | inhibition [21]: Active | inhibition [22]: Active | inhibition [23]: Dose-dependent effect | IC50 (CREB-binding protein): 3.2 µM | inhibition [24]: Active | inhibition [25]: Active | IC50 (MOLT-4): 3.5 µM | IC50 (THP-1): 3 µM | inhibition [26]: Active | IC50 (Jurkat): 2.2 µM | inhibition [27]: Active | inhibition [28]: Active | inhibition [29]: Dose-dependent effect | IC50 (K562): 3.1 µM | IC50 (MV4-11 [4]): 1.1 µM | inhibition [30]: Active | IC50 (Kasumi 1): 1.9 µM | IC50 (MOLT-3): 2.7 µM | Activity (MV4-11 [31]): Dose-dependent effect | inhibition [32]: Active | inhibition [33]: Active

CCCCCCCCCCCCCCCc1cccc(O)c1C(=O)O [ANACARDIC ACID]
IC50 [34]: 64 µM

CN1C(=O)/C(=C/c2ccc(N3CCOCC3)o2)C(=O)NC1=S
IC50 [1]: > 50 µM
